pIC50: −log10 of the molar value.
Biological target: T1, human mPGES-1 (Homo sapiens, UniProt O14684)
T1 construct: host or cells: microsomes
T1 sequence (O14684 1-152): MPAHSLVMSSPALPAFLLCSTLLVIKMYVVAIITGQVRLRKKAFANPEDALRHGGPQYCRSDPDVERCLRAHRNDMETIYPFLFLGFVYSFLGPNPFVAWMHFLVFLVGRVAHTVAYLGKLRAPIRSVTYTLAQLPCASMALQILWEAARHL
Test: Microsomal prostaglandin E synthase biochemical assay
Details: microsome preparation containing human mPGES-1; substrate PGH2 10.8 μM, GSH 2.5 mM, pH 6.8; PGE2 by HTRF; average of at least n=2
Experimental: Compounds were tested as inhibitors of microsomal prostaglandin E synthase activity in microsomal prostaglandin E synthase assays and whole cell assays. These assays measure prostaglandin E2 (PGE2) synthesis which is taken as a measure of prostaglandin E synthase activity. Microsomal prostaglandin E synthase biochemical assays used microsomal prostaglandin E synthase-1 in microsomal preparations. The source of the microsomes can be for example interleukin-1β-stimulated human A549 cells (which express human mPGES-1) or Sf9 cells transfected with plasmids encoding human mPGES-1 cDNA.
A solution of test compound was added to a diluted microsome preparation containing is human mPGES-1 and pre-incubated for 15 minutes in potassium phosphate buffer pH 6.8 with cofactor glutathione (GSH). Corresponding solutions without test compound were used as positive controls, and corresponding solutions without test compound and without microsomes were used as negative controls. The enzymatic reaction was then started by addition of the substrate PGH2 in an organic solution (dry acetonitrile).
The reaction was stopped after one minute by adding an acidic solution (pH 1.9) of ferric chloride and citrate (final concentrations 7 mM and 47 mM respectively), by which the PGH2 was sequestered (the PGH2 is reduced to mainly 12-hydroxy heptadecatrineoic acid (12-HHT) which is not detected by the subsequent PGE2 detection step). The resulting solution was then pH neutralized by addition of potassium phosphate buffer, prior to diluting an aliquot of the resulting solution in a weak potassium phosphate buffer (50 mM, pH 6.8) containing 0.2% BSA (w/v). […] The PGE2 formed was quantified by use of a commercial HTRF based kit (catalogue #62PG2PEC or #62P2APEC from Cisbio International). 100% activity was defined as the PGE2 production in positive controls subtracted by the PGE2 production in the negative controls. IC50 values were then determined using standard procedures.

SMILES	pIC50
COc1cc(C(=O)NS(=O)(=O)c2ccccc2S(N)(=O)=O)ccc1C#Cc1ccccc1C [Example 14, 3-Methoxy-N-(2-sulfamoylphenylsulfonyl)-4-(o-tolylethynyl)benzamide]	7.96
NS(=O)(=O)c1ccccc1S(=O)(=O)NC(=O)c1ccc(C#CC2CCCC2)c(OCCOCC(F)(F)F)c1 [Example 67, 4-(Cyclopentylethynyl)-N-(2-sulfamoylphenylsulfonyl)-3-(2-(2,2,2-trifluoroethoxy)ethoxy)benzamide]	8.02
CC(C)(C)C#Cc1ccc(C(=O)NS(=O)(=O)c2ccccc2S(N)(=O)=O)cc1OCCOCC(F)(F)F [Example 61, 4-(3,3-Dimethylbut-1-ynyl)-N-(2-sulfamoylphenylsulfonyl)-3-(2-(2,2,2-trifluoroethoxy)ethoxy)benzamide]	7.57
NS(=O)(=O)c1ccccc1S(=O)(=O)NC(=O)c1ccc(OCc2ccccc2)c(OCC2CC2)c1 [Example 1, 4-(Benzyloxy)-3-(cyclopropylmethoxy)-N-(2-sulfamoylphenylsulfonyl)benzamide]	6.55
COc1cc(C(=O)NS(=O)(=O)c2ccccc2S(N)(=O)=O)ccc1C#Cc1cccc(F)c1 [Example 20, 4-((3-Fluorophenyl)ethynyl)-3-methoxy-N-(2-sulfamoylphenylsulfonyl)benzamide]	7.92
CC(C)C#Cc1ccc(C(=O)NS(=O)(=O)c2ccccc2S(N)(=O)=O)cc1OCCOCC(F)(F)F [Example 51, 4-(3-Methylbut-1-ynyl)-N-(2-sulfamoylphenylsulfonyl)-3-(2-(2,2,2-trifluoroethoxy)ethoxy)benzamide]	7.59
NS(=O)(=O)c1ccccc1S(=O)(=O)NC(=O)c1ccc(C#CC2CCCC2)c(OCC(F)F)c1 [Example 5, 4-(Cyclopentylethynyl)-3-(2,2-difluoroethoxy)-N-(2-sulfamoylphenylsulfonyl)benzamide]	7.85
CC(C)C#Cc1ccc(C(=O)NS(=O)(=O)c2ccccc2S(N)(=O)=O)cc1COCC(F)(F)F [Example 56, 4-(3-Methylbut-1-ynyl)-N-(2-sulfamoylphenylsulfonyl)-3-((2,2,2-trifluoroethoxy)methyl)benzamide]	7.00
CC(C)C#Cc1ccc(C(=O)NS(=O)(=O)c2ccccc2S(N)(=O)=O)cc1OCCC(C)(C)O [Example 25, 3-(3-Hydroxy-3-methylbutoxy)-4-(3-methylbut-1-ynyl)-N-(2-sulfamoylphenylsulfonyl)benzamide]	6.89
COC(C)(C)CCOc1cc(C(=O)NS(=O)(=O)c2ccccc2S(N)(=O)=O)ccc1C#CC1CC1 [Example 27, 4-(Cyclopropylethynyl)-3-(3-methoxy-3-methylbutoxy)-N-(2-sulfamoylphenylsulfonyl)benzamide]	7.07
NS(=O)(=O)c1ccccc1S(=O)(=O)NC(=O)c1ccc(C#CC2CCCC2)c(OCCC(F)F)c1 [Example 68, 4-(Cyclopentylethynyl)-3-(3,3-difluoropropoxy)-N-(2-sulfamoylphenylsulfonyl)benzamide]	7.92
CC(C)C#Cc1ccc(C(=O)NS(=O)(=O)c2ccccc2S(N)(=O)=O)cc1OC(C)C [Example 26, 3-Isopropoxy-4-(3-methylbut-1-ynyl)-N-(2-sulfamoylphenylsulfonyl)benzamide]	7.07
COc1cc(C(=O)NS(=O)(=O)c2ccccc2S(N)(=O)=O)ccc1COc1ccc(C)cc1 [Example 2, 3-Methoxy-N-(2-sulfamoylphenylsulfonyl)-4-(p-tolyloxymethyl)benzamide]	7.51
NS(=O)(=O)c1ccccc1S(=O)(=O)NC(=O)c1ccc(C#Cc2ccc(C(F)(F)F)cc2)nc1 [Example 43]	8.19
CC(C)C#Cc1ccc(C(=O)NS(=O)(=O)c2ccccc2S(N)(=O)=O)cc1OCC(C)C [Example 28, 3-Isobutoxy-4-(3-methylbut-1-ynyl)-N-(2-sulfamoylphenylsulfonyl)benzamide]	7.70

Further lines, results first:

pIC50	SMILES
8.19	NS(=O)(=O)c1ccccc1S(=O)(=O)NC(=O)c1cnc(C#Cc2ccc(C(F)(F)F)cc2)c(F)c1 [Example 47, 5-Fluoro-N-(2-sulfamoylphenylsulfonyl)-6-((4-(trifluoromethyl)phenyl)ethynyl)nicotinamide]
7.21	CC(C)(C)C#Cc1ccc(C(=O)NS(=O)(=O)c2ccc(O)cc2S(N)(=O)=O)cc1 [Example 77, 4-Hydroxy-benzene-1,2-disulfonic acid 2-amide 1-[4-(3,3-dimethyl-but-1-ynyl)-benzoylamide]]
6.72	COc1cc(C(=O)NS(=O)(=O)c2ccccc2S(N)(=O)=O)ccc1C#CC(C)C [Example 74, 3-Methoxy-4-(3-methylbut-1-ynyl)-N-(2-sulfamoylphenylsulfonyl)benzamide]
7.22	CCCC(C)C#Cc1ccc(C(=O)NS(=O)(=O)c2ccccc2S(N)(=O)=O)cc1CO (stereo not shown) [Example 32, 3-(Hydroxymethyl)-4-(3-methylhex-1-ynyl)-N-(2-sulfamoylphenylsulfonyl)benzamide]
8.30	Cc1ccc(C#Cc2ccc(C(=O)NS(=O)(=O)c3ccccc3S(N)(=O)=O)cc2OCC(F)F)cc1 [Example 4, 3-(2,2-Difluoroethoxy)-N-(2-sulfamoylphenylsulfonyl)-4-(p-tolylethynyl)benzamide]
8.09	NS(=O)(=O)c1ccccc1S(=O)(=O)NC(=O)c1ccc(C#Cc2ccccc2)c(OCC(F)F)c1 [Example 3, 3-(2,2-Difluoroethoxy)-4-(phenylethynyl)-N-(2-sulfamoylphenylsulfonyl)benzamide]
7.74	CC(C)C#Cc1ccc(C(=O)NS(=O)(=O)c2ccccc2S(N)(=O)=O)cc1OCCC(F)(F)F [Example 45, 4-(3-Methylbut-1-ynyl)-N-(2-sulfamoylphenylsulfonyl)-3-(3,3,3-trifluoropropoxy)benzamide]
8.07	NS(=O)(=O)c1ccccc1S(=O)(=O)NC(=O)c1ccc(-c2cc3ccccc3o2)c(F)c1 [Example 57, 4-(Benzofuran-2-yl)-3-fluoro-N-(2-sulfamoylphenylsulfonyl)benzamide]
7.60	CC(C)C#Cc1ccc(C(=O)NS(=O)(=O)c2ccccc2S(N)(=O)=O)cc1OCC(F)(F)F [Example 53, 4-(3-Methylbut-1-ynyl)-N-(2-sulfamoylphenylsulfonyl)-3-(2,2,2-trifluoroethoxy)benzamide]
8.14	COc1cc(C(=O)NS(=O)(=O)c2ccccc2S(N)(=O)=O)ccc1C#Cc1cccc(Cl)c1 [Example 19, 4-((3-Chlorophenyl)ethynyl)-3-methoxy-N-(2-sulfamoylphenylsulfonyl)benzamide]
8.00	NS(=O)(=O)c1ccccc1S(=O)(=O)NC(=O)c1cnc(C#Cc2ccc(C(F)(F)F)cc2)c(OCCC(F)(F)F)c1 [Example 48]
7.51	CC(C)C#Cc1ccc(C(=O)NS(=O)(=O)c2ccccc2S(N)(=O)=O)cc1OCCC(F)F [Example 71, 3-(3,3-Difluoropropoxy)-4-(3-methylbut-1-ynyl)-N-(2-sulfamoylphenylsulfonyl)benzamide]
8.24	NS(=O)(=O)c1ccccc1S(=O)(=O)NC(=O)c1ccc(C#Cc2cccc(F)c2)cc1 [Example 13, 4-((3-Fluorophenyl)ethynyl)-N-(2-sulfamoylphenylsulfonyl)benzamide]
7.74	NS(=O)(=O)c1ccccc1S(=O)(=O)NC(=O)c1ccc(C#CC(C2CC2)C2CC2)c(OCCC(F)(F)F)c1 [Example 36, 4-(3,3-Dicyclopropylprop-1-ynyl)-N-(2-sulfamoylphenylsulfonyl)-3-(3,3,3-trifluoropropoxy)benzamide]
8.03	NS(=O)(=O)c1ccccc1S(=O)(=O)NC(=O)c1ccc(C#CC2CCCC2)c(OCCC(F)(F)F)c1 [Example 66, 4-(Cyclopentylethynyl)-N-(2-sulfamoylphenylsulfonyl)-3-(3,3,3-trifluoropropoxy)benzamide]
8.08	COc1cc(C(=O)NS(=O)(=O)c2ccccc2S(N)(=O)=O)ccc1C#Cc1ccc(Cl)cc1 [Example 15, 4-((4-Chlorophenyl)ethynyl)-3-methoxy-N-(2-sulfamoylphenylsulfonyl)benzamide]
5.66	COc1ccc(S(=O)(=O)NC(=O)c2ccc(C#CC(C)(C)C)cc2)c(S(N)(=O)=O)c1 [Example 78, 4-methoxy-benzene-1,2-disulfonic acid 2-amide 1-[4-(3,3-dimethyl-but-1-ynyl)-benzoylamide]]
7.55	CC(C)C#Cc1ccc(C(=O)NS(=O)(=O)c2ccccc2S(N)(=O)=O)cc1OC(F)(F)F [Example 54, 4-(3-Methylbut-1-ynyl)-N-(2-sulfamoylphenylsulfonyl)-3-(trifluoromethoxy)benzamide]
7.52	CC(C)(C)C#Cc1ccc(C(=O)NS(=O)(=O)c2ccccc2S(N)(=O)=O)cc1OCCC(F)(F)F [Example 60, 4-(3,3-Dimethylbut-1-ynyl)-N-(2-sulfamoylphenylsulfonyl)-3-(3,3,3-trifluoropropoxy)benzamide]
